From US20240393292A1, “ALLERGY ANTIGEN AND EPITOPE THEREOF” (HOYU CO., LTD., priority 2019, published 2024)

Test system: IgE antibodies from patients
Assay: Wheat epitope mapping (2): overlapping 10-amino-acid peptide fragments shifted by one amino acid;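 on Rank of partial sequence as epitope binding to IgE antibody: key = sequence deemed particularly important within the common 15-residue sequence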
Assay type: binding, human
Conditions: sequence without X
Description: The peptides to be synthesized were shifted by one amino acid.
The library was prepared by the same procedure as described above in (A), and the presence or absence of binding of an IgE antibody present in the serum of a patient to each peptide fragment was measured by the same technique as described above. Numeric values determined from images obtained as a result of carrying out only the procedures (1) and (4) to (6) described above in the subsection titled (3) Spotting of cellulose-bound peptide solution were used as control values. The control value of each peptide was subtracted from numeric values determined from images obtained from results about the serum of patients, and the obtained value of the difference was compared with values of the peptides serving as the basis of overlapping.
Chemiluminescence intensity in images obtained by measurement was converted into a numeric value in the same manner as in (A). Numeric values determined from images obtained as a result of carrying out only the procedures (1) and (4) to (6) described above in the subsection titled (3) Spotting of cellulose-bound peptide solution (secondary antibody measurement values) were used as control values. The control value of each peptide was subtracted from numeric values determined from images obtained from results about the serum of patients. When values obtained using the sequences (SEQ ID NOs: 29, 131, 191, 281, 346, 414, 493, 562, 640, 706, 776, 899, 974, 1010, 1089, 1142, 1166, 1209, 1257, 1297, 1367, 1403, 1508, 1566, 1598, 1608, 1685, 1753, 1789, 1836, 1895, 1977, 2004, 2027, 2068, 2154, 2217, 2265, 2309, 2342, 2419, 2491, 2545, 2613, 2631, 2674, 2701, 2774, 2809 and 2830) serving as the basis of overlapping were defined as 100%, it was determined that: a peptide having a value of the difference that was less than 30% had no binding activity against IgE antibodies; a peptide having a value of the difference that was 30% or more and less than 50% had binding activity, albeit poor, against IgE antibodies; a peptide having a value of the difference that was 50% or more and less than 70% had binding activity, albeit somewhat poor, against IgE antibodies; and a peptide having a value of the difference that was 70% or more had equivalent or good binding activity against IgE antibodies and was thus a peptide had remaining binding activity against IgE antibodies.

## 1393 (QPLPPQQQ; REGION 1..8: note = epitope) [compound 1393]
Serum of patient P21 (WDEIA)
  Epitope sequence binding to IgE antibody, rank of the sequence: Preferably

## 1394 (QPLP; REGION 1..4: note = epitope) [compound 1394]
Serum of patient P21 (WDEIA)
  Epitope sequence binding to IgE antibody, rank of the sequence: Key

## 1401 (KPWQQQ; REGION 1..6: note = epitope) [compound 1401]
Serum of patient P35 (WDEIA)
  Epitope sequence binding to IgE antibody, rank of the sequence: Preferably

## 1405 (YLQPQQPISQ; REGION 1..10: note = epitope) [compound 1405]
Serum of patient P2 (WDEIA)
  Epitope sequence binding to IgE antibody, rank of the sequence (Key/Preferably/More preferably/Further preferably): Key

## 1407 (YLQPQQPISQ; REGION 1..10: note = epitope) [compound 1407]
Serum of patient P3 (WDEIA)
  Epitope sequence binding to IgE antibody, rank of the sequence: Preferably

## 1409 (QPQQPISQQQ; REGION 1..10: note = epitope) [compound 1409]
Serum of patient P3 (WDEIA)
  Epitope sequence binding to IgE antibody, rank of the sequence: Preferably

## 1411 (QQPISQQQAQ; REGION 1..10: note = epitope) [compound 1411]
Serum of patient P3 (WDEIA)
  Epitope sequence binding to IgE antibody, rank of the sequence: Preferably

## 1414 (YLQPQQPISQ; REGION 1..10: note = epitope) [compound 1414]
Serum of patient P4 (WDEIA)
  Epitope sequence binding to IgE antibody, rank of the sequence: Preferably

## 1415 (YLQPQQPIS; REGION 1..9: note = epitope) [compound 1415]
Serum of patient P4 (WDEIA)
  Epitope sequence binding to IgE antibody, rank of the sequence: Key

## 1416 (YLQPQQPIS; REGION 1..9: note = epitope) [compound 1416]
Serum of patient P8 (WDEIA)
  Epitope sequence binding to IgE antibody, rank of the sequence: Key

## 1417 (QQPISQQQAQ; REGION 1..10: note = epitope) [compound 1417]
Serum of patient P8 (WDEIA)
  Epitope sequence binding to IgE antibody, rank of the sequence: Key

## 1418 (YLQPQQPISQ; REGION 1..10: note = epitope) [compound 1418]
Serum of patient P9 (WDEIA)
  Epitope sequence binding to IgE antibody, rank of the sequence: Preferably

## 1419 (YLQPQQPIS; REGION 1..9: note = epitope) [compound 1419]
Serum of patient P9 (WDEIA)
  Epitope sequence binding to IgE antibody, rank of the sequence: Key

## 1420 (SQQQA; REGION 1..5: note = epitope) [compound 1420]
Serum of patient P9 (WDEIA)
  Epitope sequence binding to IgE antibody, rank of the sequence: Key

## 1422 (YLQPQQ; REGION 1..6: note = epitope) [compound 1422]
Serum of patient P10 (WDEIA)
  Epitope sequence binding to IgE antibody, rank of the sequence: Preferably

## 1423 (YLQPQ; REGION 1..5: note = epitope) [compound 1423]
Serum of patient P10 (WDEIA)
  Epitope sequence binding to IgE antibody, rank of the sequence: Key

## 1424 (SQQQA; REGION 1..5: note = epitope) [compound 1424]
Serum of patient P10 (WDEIA)
  Epitope sequence binding to IgE antibody, rank of the sequence: Key

## 1425 (YLQPQQPIS; REGION 1..9: note = epitope) [compound 1425]
Serum of patient P12 (WDEIA)
  Epitope sequence binding to IgE antibody, rank of the sequence: Preferably

## 1426 (YLQPQ; REGION 1..5: note = epitope) [compound 1426]
Serum of patient P12 (WDEIA)
  Epitope sequence binding to IgE antibody, rank of the sequence: Key

## 1427 (YLQPQQPISQ; REGION 1..10: note = epitope) [compound 1427]
Serum of patient P14 (WDEIA)
  Rank of partial sequence as epitope binding to IgE antibody: More preferably

## 1428 (YLQPQQPIS; REGION 1..9: note = epitope) [compound 1428]
Serum of patient P14 (WDEIA)
  Rank of partial sequence as epitope binding to IgE antibody: Preferably

## 1429 (YLQPQQ; REGION 1..6: note = epitope) [compound 1429]
Serum of patient P14 (WDEIA)
  Rank of partial sequence as epitope binding to IgE antibody: Key

## 1430 (YLQPQQPIS; REGION 1..9: note = epitope) [compound 1430]
Serum of patient P15 (WDEIA)
  Rank of partial sequence as epitope binding to IgE antibody: Preferably

## 1431 (YLQPQQP; REGION 1..7: note = epitope) [compound 1431]
Serum of patient P15 (WDEIA)
  Rank of partial sequence as epitope binding to IgE antibody: Key

## 1432 (SQQQAQ; REGION 1..6: note = epitope) [compound 1432]
Serum of patient P15 (WDEIA)
  Rank of partial sequence as epitope binding to IgE antibody: Key

## 1434 (YLQPQQPI; REGION 1..8: note = epitope) [compound 1434]
Serum of patient P16 (WDEIA)
  Rank of partial sequence as epitope binding to IgE antibody: Preferably

## 1436 (LQPQQP; REGION 1..6: note = epitope) [compound 1436]
Serum of patient P16 (WDEIA)
  Rank of partial sequence as epitope binding to IgE antibody: Key

## 1437 (PQQPISQQQA; REGION 1..10: note = epitope) [compound 1437]
Serum of patient P16 (WDEIA)
  Rank of partial sequence as epitope binding to IgE antibody: Preferably

## 1439 (SQQQA; REGION 1..5: note = epitope) [compound 1439]
Serum of patient P16 (WDEIA)
  Rank of partial sequence as epitope binding to IgE antibody: Key

## 1441 (YLQPQQPISQ; REGION 1..10: note = epitope) [compound 1441]
Serum of patient P18 (WDEIA)
  Rank of partial sequence as epitope binding to IgE antibody: Preferably

## 1442 (YLQPQQPIS; REGION 1..9: note = epitope) [compound 1442]
Serum of patient P18 (WDEIA)
  Rank of partial sequence as epitope binding to IgE antibody: Key

## 1443 (SQQQA; REGION 1..5: note = epitope) [compound 1443]
Serum of patient P18 (WDEIA)
  Rank of partial sequence as epitope binding to IgE antibody: Key

## 1444 (YLQPQQPIS; REGION 1..9: note = epitope) [compound 1444]
Serum of patient P21 (WDEIA)
  Rank of partial sequence as epitope binding to IgE antibody: Preferably

## 1445 (YLQPQ; REGION 1..5: note = epitope) [compound 1445]
Serum of patient P21 (WDEIA)
  Rank of partial sequence as epitope binding to IgE antibody: Key

## 1446 (PQQPISQQQ; REGION 1..9: note = epitope) [compound 1446]
Serum of patient P21 (WDEIA)
  Rank of partial sequence as epitope binding to IgE antibody: Preferably

## 1447 (QQPISQQQ; REGION 1..8: note = epitope) [compound 1447]
Serum of patient P21 (WDEIA)
  Rank of partial sequence as epitope binding to IgE antibody: Key

## 1450 (YLQPQQPISQ; REGION 1..10: note = epitope) [compound 1450]
Serum of patient P22 (WDEIA)
  Rank of partial sequence as epitope binding to IgE antibody: Further preferably

## 1451 (LQPQQPISQ; REGION 1..9: note = epitope) [compound 1451]
Serum of patient P22 (WDEIA)
  Rank of partial sequence as epitope binding to IgE antibody: More preferably

## 1454 (QQPISQQQAQ; REGION 1..10: note = epitope) [compound 1454]
Serum of patient P22 (WDEIA)
  Rank of partial sequence as epitope binding to IgE antibody: More preferably

## 1459 (YLQPQQPISQ; REGION 1..10: note = epitope) [compound 1459]
Serum of patient P24 (WDEIA)
  Rank of partial sequence as epitope binding to IgE antibody: Further preferably

## 1460 (LQPQQPISQ; REGION 1..9: note = epitope) [compound 1460]
Serum of patient P24 (WDEIA)
  Rank of partial sequence as epitope binding to IgE antibody: More preferably

## 1463 (QQPISQQQAQ; REGION 1..10: note = epitope) [compound 1463]
Serum of patient P24 (WDEIA)
  Rank of partial sequence as epitope binding to IgE antibody: Further preferably

## 1464 (QQPISQQQA; REGION 1..9: note = epitope) [compound 1464]
Serum of patient P24 (WDEIA)
  Rank of partial sequence as epitope binding to IgE antibody: More preferably

## 1467 (YLQPQQPIS; REGION 1..9: note = epitope) [compound 1467]
Serum of patient P26 (WDEIA)
  Rank of partial sequence as epitope binding to IgE antibody: Preferably

## 1468 (YLQPQQP; REGION 1..7: note = epitope) [compound 1468]
Serum of patient P26 (WDEIA)
  Rank of partial sequence as epitope binding to IgE antibody: Key

## 1472 (YLQPQQPIS; REGION 1..9: note = epitope) [compound 1472]
Serum of patient P27 (WDEIA)
  Rank of partial sequence as epitope binding to IgE antibody: Preferably

## 1474 (LQPQQPIS; REGION 1..8: note = epitope) [compound 1474]
Serum of patient P27 (WDEIA)
  Rank of partial sequence as epitope binding to IgE antibody: Preferably

## 1477 (YLQPQQPISQ; REGION 1..10: note = epitope) [compound 1477]
Serum of patient P32 (WDEIA)
  Rank of partial sequence as epitope binding to IgE antibody: Preferably

## 1478 (YLQPQQPIS; REGION 1..9: note = epitope) [compound 1478]
Serum of patient P32 (WDEIA)
  Rank of partial sequence as epitope binding to IgE antibody: Key

## 1479 (YLQPQQPISQ; REGION 1..10: note = epitope) [compound 1479]
Serum of patient P33 (WDEIA)
  Rank of partial sequence as epitope binding to IgE antibody: Preferably

## 1480 (YLQPQQPIS; REGION 1..9: note = epitope) [compound 1480]
Serum of patient P33 (WDEIA)
  Rank of partial sequence as epitope binding to IgE antibody: Key

## 1482 (YLQPQQPISQ; REGION 1..10: note = epitope) [compound 1482]
Serum of patient P34 (WDEIA)
  Rank of partial sequence as epitope binding to IgE antibody: More preferably

## 1483 (YLQPQQPIS; REGION 1..9: note = epitope) [compound 1483]
Serum of patient P34 (WDEIA)
  Rank of partial sequence as epitope binding to IgE antibody: Preferably

## 1484 (YLQPQQP; REGION 1..7: note = epitope) [compound 1484]
Serum of patient P34 (WDEIA)
  Rank of partial sequence as epitope binding to IgE antibody: Key

## 1485 (SQQQA; REGION 1..5: note = epitope) [compound 1485]
Serum of patient P34 (WDEIA)
  Rank of partial sequence as epitope binding to IgE antibody: Key
